Each structure is given as a SMILES string.

The target of the test is T1, heat-resistant β-galactosyltransferase produced by Saccharopolyspora rectivirgula SAM 1400 (Saccharopolyspora rectivirgula, UniProt Q9ZBD1).
T1 construct: about 140 kDa by gel filtration
Kind of test: Inhibitors: residual activity of the enzyme in the presence of compounds (Table 3). The conditions noted are these: enzyme in presence of the compound; compound concentration not given. The class given is biochemical.

T1 sequence (Q9ZBD1 entry or part of it, change not shown): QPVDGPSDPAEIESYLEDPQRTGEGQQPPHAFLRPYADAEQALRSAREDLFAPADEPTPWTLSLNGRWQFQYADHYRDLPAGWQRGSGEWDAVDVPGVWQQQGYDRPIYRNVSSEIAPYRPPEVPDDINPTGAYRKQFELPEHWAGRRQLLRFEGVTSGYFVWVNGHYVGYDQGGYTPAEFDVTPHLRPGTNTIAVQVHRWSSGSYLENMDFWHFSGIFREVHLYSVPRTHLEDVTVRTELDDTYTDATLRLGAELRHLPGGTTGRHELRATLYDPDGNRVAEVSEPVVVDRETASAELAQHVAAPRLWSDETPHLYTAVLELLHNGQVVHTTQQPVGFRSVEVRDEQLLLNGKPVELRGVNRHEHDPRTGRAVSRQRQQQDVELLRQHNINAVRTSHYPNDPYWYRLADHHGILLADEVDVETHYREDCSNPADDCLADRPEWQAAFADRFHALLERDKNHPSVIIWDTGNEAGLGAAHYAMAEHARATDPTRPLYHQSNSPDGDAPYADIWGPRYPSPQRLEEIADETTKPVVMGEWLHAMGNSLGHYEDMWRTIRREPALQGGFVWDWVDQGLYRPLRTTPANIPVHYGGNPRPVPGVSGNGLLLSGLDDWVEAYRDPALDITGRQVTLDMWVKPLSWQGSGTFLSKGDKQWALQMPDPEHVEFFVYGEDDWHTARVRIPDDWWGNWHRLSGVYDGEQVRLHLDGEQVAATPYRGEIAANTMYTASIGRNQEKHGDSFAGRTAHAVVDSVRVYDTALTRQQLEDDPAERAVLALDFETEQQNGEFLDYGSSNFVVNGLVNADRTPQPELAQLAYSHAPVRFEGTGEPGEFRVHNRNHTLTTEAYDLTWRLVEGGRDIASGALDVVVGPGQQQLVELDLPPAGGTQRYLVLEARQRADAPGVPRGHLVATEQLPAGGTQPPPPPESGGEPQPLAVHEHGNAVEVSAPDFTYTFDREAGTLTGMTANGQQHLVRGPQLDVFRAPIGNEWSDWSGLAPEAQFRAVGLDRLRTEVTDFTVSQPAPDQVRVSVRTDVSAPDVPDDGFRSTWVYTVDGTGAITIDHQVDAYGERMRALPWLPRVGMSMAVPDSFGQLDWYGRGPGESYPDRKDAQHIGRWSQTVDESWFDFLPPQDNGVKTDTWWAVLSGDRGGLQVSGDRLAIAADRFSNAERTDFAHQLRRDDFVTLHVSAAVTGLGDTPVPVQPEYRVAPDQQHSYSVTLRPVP

Turning to `OCCS` [2-Mercaptoethanol], the Residual activity stood at 96%.

Source of the values: patent publication US5153128A, “Heat-resistant β-galactosyltransferase, its production process and its use” (Suntory Limited, priority 1990, dated 1992).
